Test results published in the NIST ThermoML archive (doi:10.1021/je101361u).

Conditions: 101.33 kPa, Liquid

ClCCCl [1,2-dichloroethane]
Conditions | mass density [kg/m3]
283.15 K | 1267.39
284.15 K | 1265.95
285.15 K | 1264.5
286.15 K | 1263.05
287.15 K | 1261.6
288.15 K | 1260.15
289.15 K | 1258.7
290.15 K | 1257.25
291.15 K | 1255.8
292.15 K | 1254.35
293.15 K | 1252.89
294.15 K | 1251.44
295.15 K | 1249.98
296.15 K | 1248.52
297.15 K | 1247.07
298.15 K | 1245.61
299.15 K | 1244.15
300.15 K | 1242.69
301.15 K | 1241.22
302.15 K | 1239.76
303.15 K | 1238.29
304.15 K | 1236.83
305.15 K | 1235.36
306.15 K | 1233.89
307.15 K | 1232.42
308.15 K | 1230.95
309.15 K | 1229.47
310.15 K | 1228
311.15 K | 1226.53
312.15 K | 1225.05
313.15 K | 1223.57
314.15 K | 1222.09
315.15 K | 1220.61
316.15 K | 1219.13
317.15 K | 1217.64
318.15 K | 1216.16
319.15 K | 1214.67
320.15 K | 1213.18
321.15 K | 1211.69
322.15 K | 1210.2
323.15 K | 1208.7
324.15 K | 1207.21
325.15 K | 1205.71
326.15 K | 1204.21
327.15 K | 1202.71
328.15 K | 1201.21
329.15 K | 1199.7
330.15 K | 1198.19
331.15 K | 1196.69
332.15 K | 1195.18
333.15 K | 1193.66

COCCOC [1,2-dimethoxyethane]
Conditions | mass density [kg/m3]
283.15 K | 877.64
284.15 K | 876.56
285.15 K | 875.48
286.15 K | 874.4
287.15 K | 873.31
288.15 K | 872.23
289.15 K | 871.14
290.15 K | 870.05
291.15 K | 868.96
292.15 K | 867.87
293.15 K | 866.79
294.15 K | 865.7
295.15 K | 864.61
296.15 K | 863.51
297.15 K | 862.42
298.15 K | 861.32
299.15 K | 860.22
300.15 K | 859.12
301.15 K | 858.01
302.15 K | 856.91
303.15 K | 855.8
304.15 K | 854.69
305.15 K | 853.58
306.15 K | 852.46
307.15 K | 851.35
308.15 K | 850.24
309.15 K | 849.13
310.15 K | 848.02
311.15 K | 846.9
312.15 K | 845.79
313.15 K | 844.67
314.15 K | 843.55
315.15 K | 842.42
316.15 K | 841.29
317.15 K | 840.17
318.15 K | 839.04
319.15 K | 837.91
320.15 K | 836.77
321.15 K | 835.64
322.15 K | 834.5
323.15 K | 833.36
324.15 K | 832.22
325.15 K | 831.08
326.15 K | 829.93
327.15 K | 828.78
328.15 K | 827.63
329.15 K | 826.48
330.15 K | 825.33
331.15 K | 824.17
332.15 K | 823.02
333.15 K | 821.86

COCCOCCOC [2,5,8-trioxanonane]
Conditions | mass density [kg/m3]
283.15 K | 953.66
284.15 K | 952.67
285.15 K | 951.69
286.15 K | 950.7
287.15 K | 949.71
288.15 K | 948.72
289.15 K | 947.73
290.15 K | 946.74
291.15 K | 945.75
292.15 K | 944.76
293.15 K | 943.76
294.15 K | 942.79
295.15 K | 941.79
296.15 K | 940.79
297.15 K | 939.8
298.15 K | 938.8
299.15 K | 937.8
300.15 K | 936.81
301.15 K | 935.81
302.15 K | 934.82
303.15 K | 933.82
304.15 K | 932.82
305.15 K | 931.82
306.15 K | 930.82
307.15 K | 929.83
308.15 K | 928.83
309.15 K | 927.82
310.15 K | 926.83
311.15 K | 925.82
312.15 K | 924.82
313.15 K | 923.82
314.15 K | 922.81
315.15 K | 921.81
316.15 K | 920.8
317.15 K | 919.8
318.15 K | 918.79
319.15 K | 917.78
320.15 K | 916.78
321.15 K | 915.77
322.15 K | 914.75
323.15 K | 913.75
324.15 K | 912.73
325.15 K | 911.72
326.15 K | 910.7
327.15 K | 909.69
328.15 K | 908.67
329.15 K | 907.65
330.15 K | 906.63
331.15 K | 905.62
332.15 K | 904.6
333.15 K | 903.59

CCOCCOCCOCC [diethylene glycol diethyl ether]
Conditions | mass density [kg/m3]
283.15 K | 916.36
284.15 K | 915.39
285.15 K | 914.43
286.15 K | 913.46
287.15 K | 912.5
288.15 K | 911.53
289.15 K | 910.57
290.15 K | 909.6
291.15 K | 908.63
292.15 K | 907.67
293.15 K | 906.71
294.15 K | 905.75
295.15 K | 904.78
296.15 K | 903.81
297.15 K | 902.85
298.15 K | 901.88
299.15 K | 900.92
300.15 K | 899.95
301.15 K | 898.98
302.15 K | 898.02
303.15 K | 897.05
304.15 K | 896.08
305.15 K | 895.12
306.15 K | 894.15
307.15 K | 893.18
308.15 K | 892.21
309.15 K | 891.25
310.15 K | 890.28
311.15 K | 889.31
312.15 K | 888.34
313.15 K | 887.37
314.15 K | 886.4
315.15 K | 885.43
316.15 K | 884.46
317.15 K | 883.48
318.15 K | 882.51
319.15 K | 881.54
320.15 K | 880.57
321.15 K | 879.6
322.15 K | 878.63
323.15 K | 877.66
324.15 K | 876.7
325.15 K | 875.73
326.15 K | 874.75
327.15 K | 873.78
328.15 K | 872.81
329.15 K | 871.84
330.15 K | 870.87
331.15 K | 869.89
332.15 K | 868.92
333.15 K | 867.94
